Among the data in BindingDB's records for doi:10.1016/s0960-894x(03)00584-5 (Schering-Plough Research Institute, 2003) are IC50 values, retold here.

This test concerns the target Hepatitis C virus NS3 protease (Hepatitis C virus). As to the kind of experiment: Inhibitory activity evaluated in the HCV protease binding assay.

In general, IC50 refers to the concentration that gives 50% inhibition. Higher therefore signals lower potency.

Turning to `O=C1OC[C@H]2O[C@@H](Oc3cc(O)c4c(c3)OC(c3ccccc3)CC4=O)[C@H](O)[C@@H](O)[C@@H]2OC(=O)c2cc(O)c(O)c(O)c2-c2c1cc(O)c(O)c2O` (stereo partly specified) [2,3,4,5,6,7,14,15-octahydroxy-13-(5-hydroxy-4-oxo-2-phenyl-3,4-dihydro-2H-7-chromenyloxy)-9,11,11a,13,14,15,15a,17-octahydrodibenzo[g,i]pyrano[3,2-b][1,5]dioxacycloundecine-9,17-dione], the half-inhibitory concentration (IC50) is 2800 nM.
